The target of one assay is T1, human MT1 receptor (Homo sapiens, UniProt P48039).
T1 construct: expressed in transfected cells
Kind of assay: Activation of human MT1 receptor in receptor-expressing cells, intracellular Ca2+ by FLIPR. In kind it is cell-based. As to conditions: for EC50: HEK293EBNA1 cells stably expressing human MT1 and Gq/i chimeric G protein, Ca2+ FLIPR; for Emax: maximum reaction by ramelteon taken as 100%.

The target of the next assay is T2, human MT2 receptor (Homo sapiens, UniProt P49286).
T2 construct: expressed in transfected cells
T2 sequence (P49286 1-362): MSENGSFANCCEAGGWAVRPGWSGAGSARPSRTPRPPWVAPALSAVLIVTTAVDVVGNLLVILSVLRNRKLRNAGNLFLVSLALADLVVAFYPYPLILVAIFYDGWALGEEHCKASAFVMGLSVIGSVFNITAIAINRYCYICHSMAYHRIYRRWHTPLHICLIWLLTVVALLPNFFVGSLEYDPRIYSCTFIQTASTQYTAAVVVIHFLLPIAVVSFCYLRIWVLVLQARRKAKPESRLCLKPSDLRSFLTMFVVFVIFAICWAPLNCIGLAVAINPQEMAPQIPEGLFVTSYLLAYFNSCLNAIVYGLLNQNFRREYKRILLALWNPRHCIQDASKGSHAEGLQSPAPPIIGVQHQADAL
Kind of assay: Activation of human MT2 receptor in receptor-expressing cells, intracellular Ca2+ by FLIPR. As to conditions: for EC50: HEK293 cells stably expressing human MT2 and Gq/i chimeric G protein, Ca2+ FLIPR; for Emax: maximum reaction by ramelteon taken as 100%. It counts as cell-based.

Results on 30 molecules are retold here after patent US9637451B2, “Indole compound” (ASTELLAS PHARMA INC., priority 2014, dated 2017).

T1 sequence (P48039 whole entry): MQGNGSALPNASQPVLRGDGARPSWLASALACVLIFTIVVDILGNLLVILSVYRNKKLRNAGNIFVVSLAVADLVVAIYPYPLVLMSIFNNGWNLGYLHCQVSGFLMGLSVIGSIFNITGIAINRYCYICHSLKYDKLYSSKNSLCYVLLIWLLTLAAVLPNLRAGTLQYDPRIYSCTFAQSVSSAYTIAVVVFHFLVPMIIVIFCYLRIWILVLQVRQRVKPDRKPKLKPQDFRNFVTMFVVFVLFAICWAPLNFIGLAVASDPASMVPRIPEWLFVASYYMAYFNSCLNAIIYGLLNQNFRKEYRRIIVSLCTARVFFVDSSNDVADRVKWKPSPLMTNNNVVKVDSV

For `CC(=O)NCC(C)(C)c1c[nH]c2cc(F)c(OCCn3ccc(C)n3)cc12` [Example 36], the EC50 (as a rule, the concentration needed to bring the measured effect to its halfway point) on human MT1 receptor was found to be 6 nM; at human MT2 receptor, 15 nM. The Emax – broadly, the greatest response seen or fitted, relative to the assay's reference – amounted to 101% at human MT1 receptor and 96% at human MT2 receptor.
The corresponding values for `CCCC(=O)NCCc1c[nH]c2ccc(OCCOc3ccn(C)n3)cc12` [Example 41] are 11 nM, 26 nM, 75% and 93%.
As for `CNC(=O)NCCc1c(C)[nH]c2cc(F)c(OCCOc3ccn(C)n3)cc12` [Example 47], the EC50 at human MT1 receptor was 9.8 nM; at human MT2 receptor, 41 nM. For the same molecule, the Emax on human MT1 receptor worked out at 124%; at human MT2 receptor, 145%.
Taken in the same sequence, the figures for `CC(=O)NCCc1c(C)[nH]c2cc(F)c(OCCn3ccc(C)n3)cc12` [Example 22] were 7.3 nM, 8.7 nM, 105% and 95%.
Taken in the same sequence, the figures for `CCOC(=O)NCCOc1ccc2[nH]c(C)c(CCNC(C)=O)c2c1` [Example 12] were 7.7 nM, 18 nM, 96% and 93%.
Taken in the same sequence, the figures for `CNC(=O)NCCc1c[nH]c2ccc(OCCOc3cncc(Cl)c3)cc12` [Example 56] were 15 nM, 9.9 nM, 92% and 125%.
In the case of `CNC(=O)NCCc1c[nH]c2ccc(OCCOc3cccc(OC)n3)cc12` [Example 53], at human MT1 receptor, the EC50 was determined as 1 nM and the maximum response (Emax) worked out at 112%. At human MT2 receptor, this molecule registered an EC50 of 4.8 nM and an Emax of 99%.
Taken in the same sequence, the figures for `COc1ccc(OCCOc2cc3c([C@@H](C)CNC(C)=O)c[nH]c3cc2F)cn1` [Example 40] were 6.3 nM, 81%, 160 nM and 42%.
The corresponding values for `CC(=O)NC[C@H](C)c1c[nH]c2cc(F)c(OCCn3ccc(C)n3)cc12` [Example 39] are 7.2 nM, 104%, 51 nM and 49%.
Taken in the same sequence, the figures for `CC(=O)NCC(C)c1c[nH]c2ccc(OCCOc3ccn(C)n3)cc12` (stereo not drawn) [Example 34] were 4.3 nM, 93%, 10 nM and 125%.
At human MT1 receptor, `CC(=O)NCCc1c[nH]c2ccc(OCCOc3cncc(F)c3)cc12` [Example 57] showed a 50% effective concentration (EC50) of 12 nM and an Emax of 94%. For the same molecule, at human MT2 receptor, the concentration for a half-maximal effect (EC50) was 13 nM and the Emax was determined as 114%.
Taken in the same sequence, the figures for `CNC(=O)NCCc1c[nH]c2ccc(OCCc3nc(C)sc3C)cc12` [Example 21] were 7 nM, 103%, 44 nM and 59%.
The corresponding values for `CCC(=O)NCCc1c(C)[nH]c2cc(F)c(OCCOc3ccn(C)n3)cc12` [Example 45] are 2.3 nM, 99%, 14 nM and 127%.
Taken in the same sequence, the figures for `Cn1ccc(OCCOc2cc3c(CCNC(=O)C(F)F)c[nH]c3cc2F)n1` [Example 44] were 3.3 nM, 103%, 4.5 nM and 102%.
`CC(=O)NCCc1c[nH]c2ccc(OCCOc3ccccn3)cc12` [Example 64]: the EC50 at human MT1 receptor came to 1.6 nM; on human MT2 receptor, 2.1 nM. In addition, the Emax on human MT1 receptor came out at 102%; on human MT2 receptor, 116%.
The corresponding values for `COc1ncc(OCCOc2cc3c(CCNC(C)=O)c[nH]c3cc2F)cc1F` [Example 33] are 4.3 nM, 60 nM, 103% and 53%.
The corresponding values for `CC(=O)NCCc1c[nH]c2ccc(OCCOc3cnccn3)cc12` [Example 3, N-(2-{5-[2-(pyrazin-2-yloxy)ethoxy]-1H-indol-3-yl}ethyl)acetamide] are 9.9 nM, 51 nM, 94% and 127%.
Turning to `CNC(=O)NCCc1c[nH]c2ccc(OCCOc3ccnc(Cl)c3)cc12` [Example 52], on human MT1 receptor, it took 10 nM to reach a half-maximal effect (EC50) and the Emax turned out to be 92%. For the same molecule, at human MT2 receptor, the EC50 was determined as 5.6 nM and the Emax turned out to be 117%.
The corresponding values for `CC(=O)NCCc1c[nH]c2ccc(OCCc3csc(C)n3)cc12` [Example 20] are 4.1 nM, 115%, 7.7 nM and 119%.
Take `CC(=O)NCCc1c[nH]c2ccc(OCCOc3nccc(C(F)(F)F)n3)cc12` [Example 62]: the 50% effective concentration (EC50) amounted to 11 nM on human MT1 receptor and 16 nM on human MT2 receptor. The Emax at human MT1 receptor was found to be 101%; on human MT2 receptor it was 118%.
The corresponding values for `COc1cccc(OCCOc2ccc3[nH]cc(CCNC(C)=O)c3c2)n1` [Example 54] are 0.77 nM, 2.6 nM, 111% and 109%.
Taken in the same sequence, the figures for `CC(=O)NCCc1c[nH]c2ccc(OCCOc3ccon3)cc12` [Example 63] were 9.7 nM, 9 nM, 90% and 105%.
Taken in the same sequence, the figures for `CC(=O)NCCc1c[nH]c2cc(F)c(OCCn3cc(Cl)cn3)cc12` [Example 24] were 13 nM, 18 nM, 99% and 71%.
`CNC(=O)NCCc1c(C)[nH]c2ccc(OCCn3ccc(C)n3)cc12` [Example 30]: the figures for the 50% effective concentration (EC50) on human MT1 receptor and on human MT2 receptor were 4.8 nM and 15 nM, respectively. In addition, the Emax on human MT1 receptor was determined as 106%; on human MT2 receptor it was 110%.
The corresponding values for `COc1ncc(OCCOc2ccc3[nH]cc(CCNC(C)=O)c3c2)cc1F` [Example 32] are 3.4 nM, 50 nM, 96% and 66%.
As for `CCCc1cccc(OCCOc2ccc3[nH]cc(CCNC(C)=O)c3c2)n1` [Example 61], at human MT1 receptor, the response was half-maximal at 6.9 nM (EC50) and the Emax was found to be 84%. On human MT2 receptor, this molecule came in with an EC50 of 5.4 nM and an Emax of 92%.
As for `CC(=O)NCCc1c(C)[nH]c2ccc(OCCn3ccc(C)n3)cc12` [Example 29], the EC50 on human MT1 receptor came to 10 nM; at human MT2 receptor it was 24 nM. Besides, the maximum response (Emax) at human MT1 receptor was 100%; at human MT2 receptor it was 112%.
Taken in the same sequence, the figures for `CC(=O)NCCc1c[nH]c2ccc(OCCOc3cncc(Cl)c3)cc12` [Example 55] were 8 nM, 9.1 nM, 109% and 133%.
As to `CNC(=O)NCCc1c[nH]c2ccc(OCCOc3cccc(C)n3)cc12` [Example 58], the results for the concentration for a half-maximal effect (EC50) at human MT1 receptor and at human MT2 receptor were 1.2 nM and 3.4 nM, respectively. Further, the Emax at human MT1 receptor and on human MT2 receptor was 99% each time.
As for `CC(=O)NCCc1c[nH]c2ccc(OCCOc3cccc(C4CC4)n3)cc12` [Example 60], the figures for the EC50 at human MT1 receptor and on human MT2 receptor were 7.2 nM and 9.2 nM, respectively. Further, the Emax was found to be 94% at human MT1 receptor and 104% at human MT2 receptor.
